We go through 10 compounds from patent US10117853B2, “Cyclic amine derivative and pharmaceutical use thereof” (Toray Industries, Inc., priority 2015, dated 2018).

SMILES strings stand for the structures. Structures can show the parent of a compound that is named as a salt.

Test [1] concerns mouse partial sciatic nerve ligation model. The test can be described thus: Mouse partial sciatic nerve ligation model (Seltzer model), von Frey test. Format: in vivo, Crl: CD1 (ICR) mice. As to conditions: oral administration seven days after ligation; 0.01 to 10 mg/kg depending on compound, pregabalin 10 mg/kg; 1, 2, 3 hours after administration; versus partial sciatic nerve ligation+distilled water group. As for the experimental part:
Using a partial sciatic nerve ligation model (Seltzer model) in mice by which neuropathic pain can be evaluated, the analgesic action of a cyclic amine derivative (I) or a pharmacologically acceptable salt thereof was investigated.
The mouse partial sciatic nerve ligation model was prepared in accordance with the method of Seltzer et al. (Malmberg et al., Pain, vol. 76, p. 215-222, 1998).
Crl: CD1 (ICR) mice (5 weeks old, male; from CHARLES RIVER LABORATORIES JAPAN, INC.) was anesthetized with sodium pentobarbital (70 mg/kg, intraperitoneal administration). The sciatic nerve at the femoral region of the right hind paw of each mouse was exposed and triply ligated tightly with silk suture of 8-0 (from NATSUME […]., LTD.) under a stereomicroscope so that only half thickness of the nerve was trapped in the ligature. A group of mice thus treated was designated as a partial sciatic nerve ligation group. A group of mice whose sciatic nerve was just exposed and not ligated was designated as a sham surgery group.
Evaluation of neuropathic pain (hereinafter referred to as von Frey test) was performed as follows. Mice were conditioned for at least one hour in an acrylic cage for measurement (from NATSUME […]. LTD.) placed on a wire net. Thereafter, using a filament (from North Coast Medical or neuroscience) which exerted a pressure of 0.16 g, the mice were subjected to mechanical tactile stimulus by applying the filament to the plantar surface of the right hind paw 3 times, each for 3 seconds, with an interval of 3 seconds.
Seven days after the sciatic nerve ligation surgery, the compound of Example 4, 6, 8, 10, 12, 14, 16, 18 or 20 (1 to 10 mg/kg for each of the compounds of Examples 4, 6 and 8, 0.1 to 10 mg/kg for each of the compounds of Examples 16 and 18, 0.01 to 10 mg/kg for each of the compounds of Examples 10, 12 and 14; and 0.1 to 1 mg/kg for the compound of Example 20) or pregabalin as a positive control (10 mg/kg; KEMPROTEC) was dissolved in distilled water and orally administered to mice of the partial sciatic nerve ligation group. The groups of the partial sciatic nerve ligation mice to which the compound of Example 4, 6, 8, 10, 12, 14, 16, 18 or 20 was administered were designated as a “partial sciatic nerve ligation+the compound of Example 4” group; a “partial sciatic nerve ligation+the compound of Example 6” group; a “partial sciatic nerve ligation+the compound of Example 8” group; a “partial sciatic nerve ligation+the compound of Example 10” group; a “partial sciatic nerve ligation+the compound of Example 12” group; a “partial sciatic nerve ligation+the compound of Example 14” group; a “partial sciatic nerve ligation+the compound of Example 16” group; a “partial sciatic nerve ligation+the compound of Example 18” group; and a “partial sciatic nerve ligation+the compound of Example 20” group, respectively. The partial sciatic nerve ligation mouse group to which pregabalin was administered, was designated as a “partial sciatic nerve ligation+pregabalin” group. Also, the partial sciatic nerve ligation mouse group to which distilled water was orally administered, was designated as a “partial sciatic nerve ligation+distilled water” group. The sham surgery mouse group to which distilled water was orally administered was designated as a “sham surgery+distilled water” group.
The von Frey test was carried out before oral administration of a test compound (pre-value), one hour, two hours and three hours after the oral administration of a test compound.
In the figures, the vertical axis represents the total score (mean value±standard error; n=5 to 6 in FIGS. 1 to 9) in the von Frey test. The higher numerical value indicates stronger pain. The horizontal axis represents time (hr) after administration of a test compound. […]

For test [2], the system named is fibromyalgia syndrome model rats. The test can be described thus: Fibromyalgia syndrome model in rats (acidic saline), allodynia by von Frey filament. As to conditions: oral administration; Example 6 10 to 100 mg/kg, Example 18 1 to 100 mg/kg, pregabalin 10 mg/kg; 1 and 3 hours after administration; versus acidic saline+distilled water group. Format: in vivo, Crl: CD(SD) rat. From the text:
Using a fibromyalgia syndrome model in rats by which fibromyalgia syndrome can be evaluated, the analgesic action of a cyclic amine derivative (I) or a pharmacologically acceptable salt thereof was investigated.
To prepare a fibromyalgia syndrome model rat (Sluka et al., Journal of Pharmacology and Experimental Therapeutics, vol. 302, p. 1146-1150, 2002; Nagakura et al., Pain, vol. 146, p. 26-33, 2009; Sluka et al., Pain, vol. 146, p. 3-4, 2009), which is generally employed widely in basic research for fibromyalgia syndrome, acidic saline (100 μL) adjusted to pH4.0 was intramuscularly injected to the gastrocnemius muscle of the right hind paw of Crl: CD(SD) rat (6 to 7 weeks old, male; from CHARLES RIVER LABORATORIES JAPAN, INC.) under continuous inhalation anesthesia with isoflurane, twice (once in each day of Day 1 and Day 6, wherein Day 1 was the date on which the acidic saline was initially administrated). The rats thus prepared were raised in a breeding room controlled at an indoor temperature of 21 to 25° C. and an indoor humidity of 40 to 70% under the conditions of voluntary intake of food and water. In the same manner, rats to which physiological saline in place of acidic saline was intramuscularly injected were raised. The rats thus raised and not afflicted with fibromyalgia syndrome (“physiological saline+distilled water” group in FIG. 10 or 11) were also used in the experiment.
Seven days after the initial administration of acidic saline, allodynia in each rat was measured. […]
The compounds of Examples 6 and 18 (10 to 100 mg/kg for the compound of Example 6; 1 to 100 mg/kg for the compound of Example 18) were separately dissolved in distilled water and orally administered to fibromyalgia model rats (“acidic saline+the compound of Example 6” in FIG. 10 and “acidic saline+the compound of Example 18” in FIG. 11). […] In one hour and three hours after the oral administration, allodynia in individual rats was measured to evaluate an analgesic action. […]

Consider `CC(C)C[C@H](CN)CC(=O)O` [pregabalin, reference compound], for which the “analgesic action, total score in the von Frey test” value (“analgesic action, total score” below) in test [1] is reported as “statistically significant analgesic action”. In test [2], the “allodynia, 50% response threshold (mean value of the right hind paw and the left hind paw)” value (shortened to “allodynia, 50% response threshold”) is listed as “statistically significantly improved”.

For `CCCCCCCOC(=O)Cn1ccnc1CCC(=O)N1CCC(N2CCOCC2)CC1` [Example 18, n-heptyl 2-(2-(3-(4-morpholinopiperidin-1-yl)-3-oxopropyl)-1H-imidazol-1-yl)acetate hydrochloride], in test [1], the “analgesic action, total score” value is recorded as “statistically significant analgesic action”. Moreover, the “allodynia, 50% response threshold” value in test [2] was “statistically significantly improved”.

Take `CCCCOC(=O)Cn1ccnc1CCC(=O)N1CCC(N2CCOCC2)CC1` [Example 12, n-butyl 2-(2-(3-(4-morpholinopiperidin-1-yl)-3-oxopropyl)-1H-imidazol-1-yl)acetate hydrochloride]: the “analgesic action, total score” value in test [1] is reported as “statistically significant analgesic action”.

Regarding `CCCCCCOC(=O)Cn1ccnc1CCC(=O)N1CCC(N2CCOCC2)CC1` [Example 16, n-hexyl 2-(2-(3-(4-morpholinopiperidin-1-yl)-3-oxopropyl)-1H-imidazol-1-yl)acetate hydrochloride], the “analgesic action, total score” value in test [1] is “statistically significant analgesic action”. On to `CCCOC(=O)Cn1ccnc1CCC(=O)N1CCC(N2CCOCC2)CC1` [Example 10, n-propyl 2-(2-(3-(4-morpholinopiperidin-1-yl)-3-oxopropyl)-1H-imidazol-1-yl)acetate hydrochloride], for which, in test [1], the “analgesic action, total score” value was “statistically significant analgesic action”. Same read-out and setting: the result for `CCCCCCOC(=O)CCn1ccnc1CCC(=O)N1CC[C@H](N(C)C)C1` [Example 4, n-hexyl (S)-3-(2-(3-(3-(dimethylamino)pyrrolidin-1-yl)-3-oxopropyl)-1H-imidazol-1-yl)propanoate hydrochloride] reads “statistically significant analgesic action”. For `CCCCCOC(=O)Cn1ccnc1CCC(=O)N1CCC(N2CCOCC2)CC1` [Example 14, n-pentyl 2-(2-(3-(4-morpholinopiperidin-1-yl)-3-oxopropyl)-1H-imidazol-1-yl)acetate hydrochloride], in test [1], the “analgesic action, total score” value is on record as “statistically significant analgesic action”. Still for that read-out and setting: as for `CCCCCCCCOC(=O)Cn1ccnc1CCC(=O)N1CCC(N2CCOCC2)CC1` [Example 20, n-octyl 2-(2-(3-(4-morpholinopiperidin-1-yl)-3-oxopropyl)-1H-imidazol-1-yl)acetate hydrochloride], the entry is “statistically significant analgesic action”; as for `CCCCCCCCOC(=O)CCn1ccnc1CCC(=O)N1CC[C@H](N(C)C)C1` [Example 8, n-octyl (S)-3-(2-(3-(3-(dimethylamino)pyrrolidin-1-yl)-3-oxopropyl)-1H-imidazol-1-yl)propanoate hydrochloride], “statistically significant analgesic action”.

For `CCCCCCCOC(=O)CCn1ccnc1CCC(=O)N1CC[C@H](N(C)C)C1` [Example 6, n-heptyl (S)-3-(2-(3-(3-(dimethylamino)pyrrolidin-1-yl)-3-oxopropyl)-1H-imidazol-1-yl)propanote hydrochloride], in test [1], the “analgesic action, total score” value was “statistically significant analgesic action”. In test [2], the “allodynia, 50% response threshold” value was “statistically significantly improved”.
